Patent US12084420B2, “Indoline compounds for inhibiting KIF18A” (Volastra Therapeutics, Inc., priority 2021, dated 2024)
Like-named read-outs stand apart in the source and are kept apart here.

Assays:
[1] = tested on: NIH:OVCAR-3 cells; assay: Cell viability of KIF18a-sensitive cell lines, NIH:OVCAR-3 (Cell Titre-Glo, 7 days); type: cell-based; conditions: NIH-OVCAR3 cells, 7 days, Cell Titre-Glo, read-out: NIH-OVCAR3 IC50
Protocol: (§1) Cell Viability of KIF18a-Sensitive Cell Lines
(§2) Cell lines were seeded as follows 24 hours before compound treatment: HCC15 (Korean Cell Line Bank) 600 cell/well, 95 μL of RPMI-1640 media supplemented with 100 units/mL penicillin, 100 units/mL streptomycin and 10% FBS; NIH:OVCAR-3 (ATCC), 1000 cell/well, 95 μL of RPMI-1640 media supplemented with 100 units/mL penicillin, 100 units/mL streptomycin, 0.01 mg/mL bovine insulin, and 20% FBS; JIMT-1 (Addexbio) 1000 cell/well, 95 μL of DMEM media supplemented with 100 units/mL penicillin, 100 units/mL streptomycin, and 10% FBS.
(§3) Test compounds were added to cells in a 20× dilution scheme by adding 5 μL of serially diluted compound to the plate, and the treated cells were incubated for an additional 7 days in a 37° C., 5% CO2 incubator. DMSO was used as the negative control (0% effect), and wells omitting cells were used as the positive control (100% effect). The cells were incubated for seven days, and cell viability determined via the Promega Cell Titre-Glo® Assay kit. Luminescence units were converted to ATP concentrations via an ATP standard curve (10 point, 2-fold dilution from 5 uM). % Inhibition was calculated for each well as: ([max−min]−[test−min])/[max−min]. IC50 values were calculated from concentration vs. % Inhibition data via a four-parameter variable slope model.

[2] = biological target: KIF18a-Microtubule Complex (Homo sapiens (Human), UniProt Q8NI77); assay: Binding kinetics to KIF18a-microtubule complex (global progress curve analysis); conditions: for kon (on-rate from binding kinetics assay) / koff (off-rate from binding kinetics assay): global progress curve analysis; for Ki: read-out: KI (determined from binding kinetic assay koff/kon), koff/kon; for koff: read-out: koff (off-rate from binding kinetics assay)
Chain of KIF18a-Microtubule Complex (Q8NI77 whole entry, looked up): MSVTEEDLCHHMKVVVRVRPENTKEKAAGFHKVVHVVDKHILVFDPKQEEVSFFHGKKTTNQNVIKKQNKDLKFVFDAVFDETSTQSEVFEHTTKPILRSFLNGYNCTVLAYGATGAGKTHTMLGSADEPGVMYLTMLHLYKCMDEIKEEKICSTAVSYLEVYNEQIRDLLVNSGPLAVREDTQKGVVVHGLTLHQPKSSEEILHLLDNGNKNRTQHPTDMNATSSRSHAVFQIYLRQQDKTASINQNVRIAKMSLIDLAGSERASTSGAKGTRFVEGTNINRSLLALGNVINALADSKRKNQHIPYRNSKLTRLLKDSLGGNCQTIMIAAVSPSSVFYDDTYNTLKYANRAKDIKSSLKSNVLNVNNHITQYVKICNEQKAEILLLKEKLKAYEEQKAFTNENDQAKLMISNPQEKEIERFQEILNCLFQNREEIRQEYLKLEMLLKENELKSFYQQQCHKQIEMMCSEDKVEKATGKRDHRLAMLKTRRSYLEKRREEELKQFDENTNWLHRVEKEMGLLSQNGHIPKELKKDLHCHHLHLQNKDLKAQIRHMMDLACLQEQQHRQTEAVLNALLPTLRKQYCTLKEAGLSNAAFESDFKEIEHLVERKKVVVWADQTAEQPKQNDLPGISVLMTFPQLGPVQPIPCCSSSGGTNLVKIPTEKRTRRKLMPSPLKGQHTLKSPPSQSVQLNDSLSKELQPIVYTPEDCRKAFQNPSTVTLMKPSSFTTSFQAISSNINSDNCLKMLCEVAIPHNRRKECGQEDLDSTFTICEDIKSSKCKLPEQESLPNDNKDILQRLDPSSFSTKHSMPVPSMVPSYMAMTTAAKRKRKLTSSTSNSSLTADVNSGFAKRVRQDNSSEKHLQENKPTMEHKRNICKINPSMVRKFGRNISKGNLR
Chain of KIF18a-Microtubule Complex (Q2XVP4 whole entry partner, looked up): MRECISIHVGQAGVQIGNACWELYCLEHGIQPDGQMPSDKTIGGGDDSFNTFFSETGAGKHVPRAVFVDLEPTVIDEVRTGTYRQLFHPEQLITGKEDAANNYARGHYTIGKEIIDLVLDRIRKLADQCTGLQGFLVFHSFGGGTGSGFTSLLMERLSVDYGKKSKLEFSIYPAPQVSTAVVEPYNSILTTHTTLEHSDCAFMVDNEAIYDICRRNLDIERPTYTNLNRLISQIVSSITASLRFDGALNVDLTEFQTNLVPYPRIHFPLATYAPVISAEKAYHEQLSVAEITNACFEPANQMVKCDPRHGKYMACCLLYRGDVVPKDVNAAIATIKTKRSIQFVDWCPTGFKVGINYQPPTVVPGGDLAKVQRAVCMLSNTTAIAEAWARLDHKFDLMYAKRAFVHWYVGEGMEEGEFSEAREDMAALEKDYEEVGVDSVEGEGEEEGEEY
Chain of KIF18a-Microtubule Complex (P02554 whole entry partner, looked up): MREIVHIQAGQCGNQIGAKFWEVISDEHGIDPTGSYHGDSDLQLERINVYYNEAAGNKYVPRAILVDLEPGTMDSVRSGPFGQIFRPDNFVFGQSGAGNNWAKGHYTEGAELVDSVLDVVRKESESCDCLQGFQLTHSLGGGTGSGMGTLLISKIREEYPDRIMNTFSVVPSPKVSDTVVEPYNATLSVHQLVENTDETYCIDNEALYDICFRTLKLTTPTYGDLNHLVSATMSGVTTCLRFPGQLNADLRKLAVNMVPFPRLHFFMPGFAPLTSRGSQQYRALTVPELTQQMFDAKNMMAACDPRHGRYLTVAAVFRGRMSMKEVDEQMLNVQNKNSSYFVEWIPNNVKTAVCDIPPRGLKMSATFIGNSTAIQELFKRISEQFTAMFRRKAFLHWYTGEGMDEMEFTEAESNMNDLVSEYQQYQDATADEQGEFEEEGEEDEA
In short: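 kon and koff determined by global progress curve analysis, with ADP formation measured by ADP-Glo. Time- and dose-dependent progress curves were globally fitted to a Michaelis-Menten model with one-step slow-binding inhibition.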

[3] = tested on: JIMT-1 cells; assay: Cell viability of KIF18a-sensitive cell lines, JIMT-1 (Cell Titre-Glo, 7 days); type: cell-based; conditions: JIMT-1 cells, 7 days, Cell Titre-Glo, read-out: JIMT-1 IC50
Protocol: as §1, §2, §3

[4] = tested on: HCC15 cells; assay: Cell viability of KIF18a-sensitive cell lines, HCC15 (Cell Titre-Glo, 7 days); type: cell-based; conditions: HCC-15 cells, 7 days, Cell Titre-Glo, read-out: HCC-15 IC50
In short: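 Seeding was 24 h before dosing: HCC15 at 600 cells/well in RPMI-1640/10% FBS, OVCAR-3 at 1000 cells/well in RPMI-1640/20% FBS plus insulin, JIMT-1 at 1000 cells/well in DMEM/10% FBS. After serially diluted compound, cells grew 7 days at 37° C. Cell Titre-Glo luminescence was converted to ATP; IC50 came from a four-parameter fit.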

[5] = biological target: hKIF18A (1-374) (Homo sapiens (Human), UniProt Q8NI77); assay: Inhibition of KIF18A microtubule-dependent ATPase activity (ADP-Glo); conditions: KIF18A microtubule-dependent ATPase activity, biochemical assay
Chain of hKIF18A (1-374) (Q8NI77 whole entry, looked up): as the sequence (Q8NI77 whole entry, looked up) above
Chain of hKIF18A (1-374) (Q2XVP4 whole entry partner, looked up): as the sequence (Q2XVP4 whole entry partner, looked up) above
Chain of hKIF18A (1-374) (P02554 whole entry partner, looked up): as the sequence (P02554 whole entry partner, looked up) above

Structure (SMILES): CCS(=O)(=O)Nc1ccc2c(c1)C1(CCC3(CC3)CC1)CN2C(=O)c1cccc(S(=O)(=O)N2CC3(CCO3)C2)c1 [Compound 320, N-(1″-(3-((1-oxa-6-azaspiro[3.3]heptan-6-yl)sulfonyl)benzoyl)dispiro[cyclopropane-1,1′-cyclohexane-4′,3″-indolin]-5″- yl)ethanesulfonamide]
- IC50 ([1]; Homo sapiens, OVCAR-3, 168 h): 0.02 µM
- kon (on-rate from binding kinetics assay) [2]: 7500 M⁻¹ s⁻¹
- disc. t1/2 (dissociation half-life ln(2)/koff) [2]: 45 h
- Ki [2]: 0.00057 µM
- koff [2]: 4.17e-06 s⁻¹
- IC50 ([3]; Homo sapiens, 168 h): 0.014 µM
- IC50 ([4]; HCC15, 168 h): 0.021 µM
- IC50 [5]: 0.018 µM

Structure (SMILES): CS(=O)(=O)Nc1ccc2c(c1)C1(CCC3(CC3)CC1)CN2C(=O)c1cccc([C@H](O)CC2CCC2)c1 (single isomer, unassigned) [Compound 305b]
- IC50 [1]: 0.069 µM
- koff (off-rate from binding kinetics assay) [2]: 0.000389 s⁻¹
- kon (on-rate from binding kinetics assay) [2]: 106000 M⁻¹ s⁻¹
- disc. t1/2 (dissociation half-life ln(2)/koff) [2]: 0.49 h
- Ki [2]: 0.0037 µM
- IC50 [3]: 0.04 µM
- IC50 [4]: 0.06 µM
- IC50 [5]: 0.0068 µM

Structure (SMILES): CC(C)(C)NS(=O)(=O)c1cc(C(=O)N2CC3(CCC4(CC4)CC3)c3cc(NS(C)(=O)=O)ccc32)ccc1F [Compound 159, N-(tert-butyl)-2-fluoro-5-(5″- (methylsulfonamido)dispiro[cyclopropane-1,1′-cyclohexane-4′,3″-indoline]-1″-carbonyl)benzenesulfonamide]
- IC50 ([1]; Homo sapiens, OVCAR-3, 168 h): 0.022 µM
- kon (on-rate from binding kinetics assay) [2]: 7220 M⁻¹ s⁻¹
- disc. t1/2 (dissociation half-life ln(2)/koff) [2]: 32 h
- Ki [2]: 0.00083 µM
- koff [2]: 6.11e-06 s⁻¹
- IC50 ([3]; Homo sapiens, 168 h): 0.015 µM
- IC50 ([4]; HCC15, 168 h): 0.021 µM
- IC50 [5]: 0.019 µM

Structure (SMILES): COc1ccc(C(=O)N2CC3(CCC4(CC4)CC3)c3cc(NS(C)(=O)=O)ccc32)cc1S(=O)(=O)NC(C)(C)C [Compound 297, N-(tert-butyl)-2-methoxy-5-(5″-(methylsulfonamido)dispiro[cyclopropane-1,1′-cyclohexane-4′,3″-indoline]-1″-carbonyl)benzenesulfonamide]
- IC50 ([1]; Homo sapiens, OVCAR-3, 168 h): 0.01 µM
- kon (on-rate from binding kinetics assay) [2]: 10300 M⁻¹ s⁻¹
- disc. t1/2 (dissociation half-life ln(2)/koff) [2]: 49 h
- Ki [2]: 0.00038 µM
- koff [2]: 3.89e-06 s⁻¹
- IC50 ([3]; Homo sapiens, 168 h): 0.0098 µM
- IC50 ([4]; HCC15, 168 h): 0.011 µM
- IC50 [5]: 0.017 µM

Structure (SMILES): CS(=O)(=O)Nc1ccc2c(c1)C1(CCC3(CC3)CC1)CN2C(=O)c1cccc([C@@H](O)CC2CCC2)c1 (single isomer, unassigned) [Compound 305a]
- IC50 [1]: 0.09 µM
- koff (off-rate from binding kinetics assay) [2]: 0.000361 s⁻¹
- kon (on-rate from binding kinetics assay) [2]: 97200 M⁻¹ s⁻¹
- disc. t1/2 (dissociation half-life ln(2)/koff) [2]: 0.56 h
- Ki [2]: 0.0035 µM
- IC50 [3]: 0.052 µM
- IC50 [4]: 0.074 µM
- IC50 [5]: 0.0081 µM

Structure (SMILES): O=C(c1cccc(S(=O)(=O)C2CCCC2)c1)N1CC2(CCC3(CC3)CC2)c2cc(NS(=O)(=O)CCO)ccc21 [Compound 229, N-(1″-(3-(cyclopentylsulfonyl)benzoyl)dispiro [cyclopropane-1,1′-cyclohexane-4′,3″- indolin]-5″-yl)-2-hydroxyethane-1-sulfonamide]
- IC50 ([1]; Homo sapiens, OVCAR-3, 168 h): 0.013 µM
- kon (on-rate from binding kinetics assay) [2]: 16900 M⁻¹ s⁻¹
- disc. t1/2 (dissociation half-life ln(2)/koff) [2]: 39 h
- Ki [2]: 0.00029 µM
- koff [2]: 5e-06 s⁻¹
- IC50 ([3]; Homo sapiens, 168 h): 0.011 µM
- IC50 ([4]; HCC15, 168 h): 0.011 µM
- IC50 [5]: 0.0062 µM

Structure (SMILES): CS(=O)(=O)Nc1ccc2c(c1)C1(CCC3(CC3)CC1)CN2C(=O)c1cccc(S(=O)(=O)NC23CC(C2)C3)c1 [Compound 223, N-(bicyclo[1.1.1]pentan-1-yl)-3-(5″-(methylsulfonamido)dispiro[cyclopropane-1,1′-cyclohexane-4′,3″-indoline]-1″-carbonyl)benzenesulfonamide]
- IC50 ([1]; Homo sapiens, OVCAR-3, 168 h): 0.02 µM
- kon (on-rate from binding kinetics assay) [2]: 6390 M⁻¹ s⁻¹
- disc. t1/2 (dissociation half-life ln(2)/koff) [2]: 7.9 h
- Ki [2]: 0.00026 µM
- koff [2]: 2.44e-05 s⁻¹
- IC50 ([3]; Homo sapiens, 168 h): 0.015 µM
- IC50 ([4]; HCC15, 168 h): 0.021 µM
- IC50 [5]: 0.0067 µM

Structure (SMILES): CC(C)(C)NS(=O)(=O)c1cccc(C(=O)N2CC3(CCC4(CC4)CC3)c3cc(NS(=O)(=O)C4CC4)ccc32)c1 [Compound 160, N-(tert-butyl)-3-(5″- (cyclopropanesulfonamido)dispiro [cyclopropane-1,1′-cyclohexane-4′,3″- indoline]-1″- carbonyl)benzenesulfonamide]
- IC50 ([1]; Homo sapiens, OVCAR-3, 168 h): 0.008 µM
- kon (on-rate from binding kinetics assay) [2]: 10600 M⁻¹ s⁻¹
- disc. t1/2 (dissociation half-life ln(2)/koff) [2]: 33 h
- Ki [2]: 0.00054 µM
- koff [2]: 5.83e-06 s⁻¹
- IC50 ([3]; Homo sapiens, 168 h): 0.0054 µM
- IC50 ([4]; HCC15, 168 h): 0.0075 µM
- IC50 [5]: 0.02 µM

Structure (SMILES): CCS(=O)(=O)Nc1ccc2c(c1)[C@]1(CC[C@@H](C(F)F)CC1)CN2C(=O)c1cccc(S(=O)(=O)NC(C)(C)C)c1 [Compound 333a]
- IC50 [1]: 0.017 µM
- koff (off-rate from binding kinetics assay) [2]: 3.61e-06 s⁻¹
- kon (on-rate from binding kinetics assay) [2]: 7780 M⁻¹ s⁻¹
- disc. t1/2 (dissociation half-life ln(2)/koff) [2]: 53 h
- Ki [2]: 0.00047 µM
- IC50 [3]: 0.024 µM
- IC50 [4]: 0.022 µM
- IC50 [5]: 0.018 µM

Structure (SMILES): CS(=O)(=O)Nc1ccc2c(c1)C1(CCC3(CC3)CC1)CN2C(=O)c1cccc(S(=O)(=O)N2CC(F)(F)C2)c1 [Compound 257, N-(1″-(3-((3,3-difluoroazetidin-1-yl)sulfonyl)benzoyl)dispiro[cyclopropane-1,1′-cyclohexane-4′,3″-indolin]-5″- yl)methanesulfonamide]
- IC50 ([1]; Homo sapiens, OVCAR-3, 168 h): 0.021 µM
- kon (on-rate from binding kinetics assay) [2]: 18300 M⁻¹ s⁻¹
- disc. t1/2 (dissociation half-life ln(2)/koff) [2]: 10 h
- Ki [2]: 0.00096 µM
- koff [2]: 1.86e-05 s⁻¹
- IC50 ([3]; Homo sapiens, 168 h): 0.012 µM
- IC50 ([4]; HCC15, 168 h): 0.021 µM
- IC50 [5]: 0.0083 µM
